This is an account of results in patent publication US20100331348A1, “TROPANE DERIVATIVES USEFUL AS PESTICIDES” (SYNGENTA CROP PROTECTION, INC., priority 2007, published 2010).

In one assay the test system is Puccinia recondita f.sp. tritici. The experiment in a line: Puccinia recondita f.sp. tritici (wheat brown rust) leaf disk assay. Format: in vivo. The note with it: foliar, 216 h, preventive, nine days after inoculation, read-out: control of fungal infection, Puccinia recondita f.sp. tritici.
On to `Fc1cc(Cl)cnc1ON=C1CC2CCC(C1)N2c1ncnc2sccc12` [Example 5.182], for which the pest or weed control at 200 ppm is at least 80%.
As to `CCc1ncnc(N2C3CCC2CC(=NOCc2cc(F)ccc2Br)C3)c1Cl` [Example 5.83], the pest or weed control at 200 ppm is at least 80%.
Consider `CCc1ncnc(N2C3CCC2CC(CC(=O)NC(C)c2ccccc2)C3)c1Cl` (stereo not shown) [Example 7.31], for which the pest or weed control at 200 ppm was at least 80%.
Same read-out and setting: the figure for `CSc1nc(Cl)c(-c2ccccc2)c(ON=C2CC3CCC(C2)N3c2ncnc3sccc23)n1` [Example 5.254] is at least 80%.
Still for that read-out and setting: the figure for `C(#Cc1ccccc1)CC=C1CC2CCC(C1)N2c1ncnc2sccc12` [Example 3.26] is at least 80%; for `O=C(Cc1ccccc1)c1ccc(OC2C[C@H]3CC[C@@H](C2)N3c2ncnc3sccc23)cc1` (stereo partly shown) [Example 1.257] it is at least 80%; for `N#Cc1ccccc1-c1ccc(CON=C2CC3CCC(C2)N3c2ncnc3sccc23)cc1` [Example 5.206] it is at least 80%.
For `Cn1cc(C(=O)N2[C@@H]3CC[C@H]2CC(Oc2cccc(C(F)(F)F)n2)C3)c(C(F)(F)F)c1` (stereo partly shown) [Example 2.197], the pest or weed control at 200 ppm is at least 80%.
Same read-out and setting: as for `CCCOC(=O)c1ccc(OC2C[C@H]3CC[C@@H](C2)N3c2ncnc3sccc23)cc1` (stereo partly shown) [Example 2.226], the figure is at least 80%.
Consider `CCc1ncnc(N2C3CCC2CC(=CC(=O)NC(C)c2ccccc2)C3)c1Cl` (stereo not shown) [Example 3.10], for which the pest or weed control at 200 ppm was at least 80%.
Same read-out and setting: the figure for `CC(=O)CCc1ccc(OC2C[C@H]3CC[C@@H](C2)N3c2ncnc3sccc23)cc1` (stereo partly shown) [Example 2.40] is at least 80%; for `CC(NC(=O)CC1CC2CCC(C1)N2c1ncnc2sccc12)c1ccccc1` (stereo not shown) [Example 7.13] it is at least 80%; for `CCCNC(=O)CC1CC2CCC(C1)N2c1ncnc(CC)c1Cl` (stereo not shown) [Example 7.30] it is at least 80%.
Turning to `CCc1ncnc(N2C3CCC2CC(=NOCc2cc(C)cc(C)c2)C3)c1Cl` [Example 5.11], the pest or weed control at 200 ppm was at least 80%.
Same read-out and setting: as for `C#CCN(CC#C)C1C[C@H]2CC[C@@H](C1)N2c1ncnc2sccc12` (stereo partly shown) [Example 4.15], the figure is at least 80%.

In a further assay the test system is Erysiphe graminis f.sp. tritici. The experiment in a line: Erysiphe graminis f.sp. tritici (wheat powdery mildew) leaf disk assay. In kind it is in vivo. Conditions: Blumeria graminis, foliar, 96 h, preventive, four days after inoculation, read-out: control of fungal infection, Erysiphe graminis fsp. tritici.
`Fc1cc(Cl)cnc1ON=C1CC2CCC(C1)N2c1ncnc2sccc12` [Example 5.182]: the pest or weed control at 200 ppm is at least 80%.
For the compound `CCc1ncnc(N2C3CCC2CC(=NOCc2ccc(Cl)c(Cl)c2)C3)c1Cl` [Example 5.52], the pest or weed control at 200 ppm was at least 80%.
Consider `ClCc1cccc(CON=C2CC3CCC(C2)N3c2ncnc3sccc23)c1` [Example 5.200], for which the pest or weed control at 200 ppm is at least 80%.
On to `CCc1ncnc(N2[C@@H]3CC[C@H]2CC(Oc2ccc(Oc4nc(C)ns4)cc2)C3)c1Cl` (stereo partly shown) [Example 2.91], for which the pest or weed control at 200 ppm is at least 80%.
On to `CCc1ncnc(N2[C@@H]3CC[C@H]2CC(Oc2cc(Cl)c(Cl)cc2Cl)C3)c1Cl` (stereo partly shown) [Example 1.196], for which the pest or weed control at 200 ppm was at least 80%.
For `CN(C)c1cc(C(F)(F)F)nc(ON=C2CC3CCC(C2)N3c2ncnc3sccc23)n1` [Example 5.130], the pest or weed control at 200 ppm is at least 80%.
The same measure, in the same setting: as for `CCc1ncnc(N2[C@@H]3CC[C@H]2CC(Oc2ccc(OC)cc2Cl)C3)c1Cl` (stereo partly shown) [Example 2.142], the figure is at least 80%; as for `c1ccc2c(c1)CCC2c1ccc(OC2C[C@H]3CC[C@@H](C2)N3c2ncnc3sccc23)cc1` (stereo partly shown) [Example 2.53], at least 80%; as for `CCc1ncnc(N2[C@@H]3CC[C@H]2CC(Oc2ccc(C(=O)c4ccccc4)cc2)C3)c1Cl` (stereo partly shown) [Example 2.141], at least 80%.
With `CCC(C)c1cccc(C(C)CC)c1OC1C[C@H]2CC[C@@H](C1)N2c1ncnc2sccc12` (stereo partly shown) [Example 2.46], the pest or weed control at 200 ppm is at least 80%.
As to `CCCON=C1CC2CCC(C1)N2c1ccnc2c1c(C)nn2C` [Example 5.244], the pest or weed control at 200 ppm was at least 80%.
On the same count and under the same terms, as for `c1cncc(CON=C2CC3CCC(C2)N3c2ncnc3sccc23)c1` [Example 5.133], the figure is at least 80%.
The same measure, in the same setting: the figure for `COc1ccc(OC2C[C@H]3CC[C@@H](C2)N3c2ncnc3sccc23)c(Cl)c1` (stereo partly shown) [Example 2.16] is at least 80%; for `COCc1ncnc(N2[C@@H]3CC[C@H]2CC(Oc2cc(C(F)(F)F)ccn2)C3)c1OC` (stereo partly shown) [Example 2.152] it is at least 80%.
Turning to `CCc1ncnc(N2C3CCC2CC(=NOCc2cccc(OC(F)(F)F)c2)C3)c1Cl` [Example 5.75], the pest or weed control at 200 ppm is at least 80%.
`c1cc(OC2C[C@H]3CC[C@@H](C2)N3c2ncnc3sccc23)ccn1` (stereo partly shown) [Example 2.7]: the pest or weed control at 200 ppm was at least 80%.
Regarding `CCc1ncnc(N2C3CCC2CC(=NOc2cc(Oc4ccccc4)ncn2)C3)c1Cl` [Example 5.108], the pest or weed control at 200 ppm was at least 80%.
On to `CCCCCCCCC1COC2(CC3CCC(C2)N3c2ncnc3sccc23)O1` (stereo not shown) [Example 6.1], for which the pest or weed control at 200 ppm was at least 80%.
On the same count and under the same terms, as for `CCc1ncnc(N2C3CCC2CC(=NOCc2c4ccccc4cc4ccccc24)C3)c1Cl` [Example 5.9], the figure is at least 80%; as for `Cc1ccc(OC2C[C@H]3CC[C@@H](C2)N3c2ncnc3sccc23)cc1` (stereo partly shown) [Example 2.8], at least 80%.
Still for that read-out and setting: as for `Clc1ccc(Oc2cccc(OC3C[C@H]4CC[C@@H](C3)N4c3ncnc4sccc34)c2)cc1` (stereo partly shown) [Example 2.15], the figure is at least 80%; as for `CCc1ncnc(N2[C@@H]3CC[C@H]2CC(Oc2ccc(F)c(F)c2)C3)c1Cl` (stereo partly shown) [Example 2.125], at least 80%; as for `CC(C)(C)CC(C)(C)c1ccc(OC2C[C@H]3CC[C@@H](C2)N3c2ncnc3sccc23)cc1` (stereo partly shown) [Example 2.35], at least 80%.
With `CCc1ncnc(C(C)c2ncnc(N3C4CCC3CC(=NOCc3ccccc3)C4)c2Cl)c1Cl` (stereo not shown) [Example 5.77], the pest or weed control at 200 ppm was at least 80%.
For `CCc1ncnc(N2[C@@H]3CC[C@H]2CC(Oc2ccc(C4CCc5ccccc54)cc2)C3)c1Cl` (stereo partly shown) [Example 2.173], the pest or weed control at 200 ppm is at least 80%.
On to `CCc1ncnc(N2C3CCC2CC(=NOc2cc(Cl)nc(Cl)n2)C3)c1Cl` [Example 5.71], for which the pest or weed control at 200 ppm is at least 80%.
The same measure, in the same setting: the figure for `CCc1ncnc(N2C3CCC2CC(=NOc2cc(C)nc(SC)n2)C3)c1Cl` [Example 5.94] is at least 80%; for `CCc1ncnc(N2C3CCC2CC(=NOc2nc(N(C)C)cc(C(F)(F)F)n2)C3)c1Cl` [Example 5.72] it is at least 80%; for `CC(C)(C)c1ccc(OC2C[C@H]3CC[C@@H](C2)N3c2ncnc3sccc23)c(C(C)(C)C)c1` (stereo partly shown) [Example 2.45] it is at least 80%.
For the compound `Cn1nc(C(F)(F)F)c(Cl)c1C(=O)N1[C@@H]2CC[C@H]1CC(Oc1cc(C(F)(F)F)ccn1)C2` (stereo partly shown) [Example 2.220], the pest or weed control at 200 ppm is at least 80%.
Same read-out and setting: as for `CCc1ncnc(N2C3CCC2CC(=NOCc2cc(Cl)ccc2Cl)C3)c1Cl` [Example 5.62], the figure is at least 80%; as for `Cc1nsc(N2[C@@H]3CC[C@H]2CC(Oc2ccc(C(F)(F)F)cn2)C3)n1` (stereo partly shown) [Example 2.203], at least 80%.
In the case of `CCc1ncnc(N2C3CCC2CC(=NOCc2cc(Br)cc(Br)c2)C3)c1Cl` [Example 5.53], the pest or weed control at 200 ppm is at least 80%.
As to `CCc1ncnc(N2C3CCC2CC(=NOCc2cc(F)ccc2C(F)(F)F)C3)c1Cl` [Example 5.101], the pest or weed control at 200 ppm is at least 80%.
